{"source": "PubChem BioAssay AID1259409", "about": "(Chemical Carcinogenesis Research Information System (CCRIS), 2018)", "origin": "cited, not measured here", "test_system": "rodent chemically induced tumor inhibition, incidence and multiplicity", "experiment": "CCRIS tumor inhibitor studies", "data": [{"smiles": "C[C@]12C[C@H](O)[C@H]3[C@@H](CCC4=CC(=O)CC[C@@]43C)[C@@H]1CC[C@@H]2C(=O)CO", "values": [{"measurement": "tumour outcome (control, treated, inhibition, significance)", "setting": "Dose [Inhibitor]: 0, 1.5 MG 2/WK FOR 10 WK (STUDY DURATION: 65 WK), Route [Inhibitor]: INTRAMUSCULAR, Species: RAT, Strain/Sex: F344/MALE, Target Tissue: Type of Lesion: LIVER: HEPATOCELLULAR CARCINOMA, Dose [Carcinogen]: 100 UG 2/WK FOR 10 WK, Promoter: NONE USED", "value": "12/13 (92%), 12/23 (52%), 43%, p<0.02"}]}, {"smiles": "C/C=C/C1=CC2=CC3=C(C(=O)CCCCCCC)C(=O)O[C@@]3(C)C(=O)C2=CO1", "values": [{"measurement": "tumour outcome (control, treated, inhibition, significance)", "setting": "Carcinogen: 7,12-DIMETHYLBENZ[A]ANTHRACENE, 57-97-6, Dose [Inhibitor]: 0, 2 UMOL 2/WK FOR 18 WK APPLIED 30 MIN PRIOR TO EACH PROMOTER DOSE BEGINNING 1 WK POST CARCINOGEN DOSE (STUDY DURATION:, Route [Inhibitor]: DERMAL, Species: MOUSE, Strain/Sex: ICR/FEMALE, Target Tissue: Type of Lesion: SKIN: PAPILLOMA, Dose [Carcinogen]: 50 UG ONCE, Promoter: 12-O-TETRADECANOYLPHORBOL-13-ACETATE, 16561-29-8", "value": "100%, 7%, 93%, not calculated"}]}, {"smiles": "Cc1ccc(Cl)c(Nc2ccccc2C(=O)O)c1Cl", "values": [{"measurement": "tumour outcome (control, treated, inhibition, significance)", "setting": "Carcinogen: 1,2-DIMETHYLHYDRAZINE DIHYDROCHLORIDE, 306-37-6, Dose [Inhibitor]: 50 MG/L TAP WATER DAILY FOR 32 WK STARTING SIMULTANEOUSLY WITH CARCINOGEN TREATMENT (STUDY DURATION: 32 WK), Route [Inhibitor]: ORAL, Species: RAT, Strain/Sex: SPRAGUE-DAWLEY/MALE, Target Tissue: Type of Lesion: LARGE INTESTINE: TUMOR, Dose [Carcinogen]: 20 MG/KG BW WEEKLY FOR 20 WK, Promoter: NONE USED", "value": "88%, 90%, -2%, not significant"}, {"measurement": "tumour outcome (control, treated, inhibition, significance)", "setting": "Carcinogen: 1,2-DIMETHYLHYDRAZINE DIHYDROCHLORIDE, 306-37-6, Dose [Inhibitor]: 50 MG/L TAP WATER DAILY FOR 32 WK STARTING SIMULTANEOUSLY WITH CARCINOGEN TREATMENT (STUDY DURATION: 32 WK), Route [Inhibitor]: ORAL, Species: RAT, Strain/Sex: SPRAGUE-DAWLEY/MALE, Target Tissue: Type of Lesion: SMALL INTESTINE: TUMOR, Dose [Carcinogen]: 20 MG/KG BW WEEKLY FOR 20 WK, Promoter: NONE USED", "value": "46%, 35%, 24%, not significant"}]}, {"smiles": "CCCCCCCCCCCCCCCC(=O)OCC1(O)CC23CC[C@@H]4c5ccoc5C=CC4(C)C2CCC1C3", "note": "(stereo partly drawn)", "values": [{"measurement": "tumour outcome (control, treated, inhibition, significance)", "setting": "Carcinogen: 7,12-DIMETHYLBENZ[A]ANTHRACENE, 57-97-6, Dose [Inhibitor]: 0, 60 MG 1/D FOR 3 D BEGINNING 3 D PRIOR TO CARCINOGEN DOSE (STUDY DURATION: 20 WK), Route [Inhibitor]: GAVAGE, Species: RAT, Strain/Sex: SPRAGUE-DAWLEY/FEMALE, Target Tissue: Type of Lesion: MAMMARY GLAND: TUMOR, Dose [Carcinogen]: 12 MG IN 1 ML OLIVE OIL ONCE, Promoter: NONE USED", "value": "84%, 56%, 33%, p<0.05"}, {"measurement": "tumour outcome (control, treated, inhibition, significance)", "setting": "Carcinogen: 7,12-DIMETHYLBENZ[A]ANTHRACENE, 57-97-6, Dose [Inhibitor]: 0, 60 MG ONCE 4 HR PRIOR TO CARCINOGEN DOSE (STUDY DURATION: 20 WK), Route [Inhibitor]: GAVAGE, Species: RAT, Strain/Sex: SPRAGUE-DAWLEY/FEMALE, Target Tissue: Type of Lesion: MAMMARY GLAND: TUMOR, Dose [Carcinogen]: 12 MG IN 1 ML OLIVE OIL ONCE, Promoter: NONE USED", "value": "84%, 63%, 25%, p<0.05"}]}, {"smiles": "COc1cc([C@H]2Oc3cc([C@H]4Oc5cc(O)cc(O)c5C(=O)[C@@H]4O)ccc3O[C@@H]2CO)ccc1O", "values": [{"measurement": "outcome", "setting": "Carcinogen: N-Butyl-N-(4-hydroxybutyl)nitrosamine, 3817-11-6, Dose [Inhibitor]: 200 mg/kg bw 1 wk before carcinogen, dose duration 51 wk, study duration 56 wk, Route [Inhibitor]: Oral (gavage) 5 d/wk, Species: Mouse, Strain/Sex: ICR/Male, Target Tissue: Type of Lesion: Urinary Bladder: carcinoma, Dose [Carcinogen]: 0, 0.5% in drinking water for 6 wk, Promoter: None", "value": "52%, 4.1%, p=0.001"}]}, {"smiles": "CC(C)=CCC/C(C)=C/C=O", "values": [{"measurement": "outcome", "setting": "Carcinogen: DIMETHYLBENZANTHRACENE, 57-97-6, Dose [Inhibitor]: 0, 1 UMOL IN ACETONE 2/WK ADMINISTERED PRIOR TO EACH PROMOTER DOSE FOR 20 WK (STUDY DURATION: 21 WK), Route [Inhibitor]: DERMAL, Species: MOUSE, Strain/Sex: SKH/HR1/FEMALE, Target Tissue: Type of Lesion: SKIN: TUMOR, Dose [Carcinogen]: 0.1 UMOL IN 0.1 ML ACETONE ONCE, Promoter: TPA, 16561-29-8", "value": "88%, 72%, 18%, p 0.05 at 10 wk of promotion: 96%, 96%, 0%, not calculated at 15"}]}]}
